We go through 8 compounds from patent EP0341681B1, “6-Phenoxymethyl-4-hydroxytetrahydropyran-2-ones and 6-thiophenoxymethyl-4-hydroxytetrahydropyran-2-ones, the corresponding dihydrocarboxylic-acid derivatives, salts and esters, process for preparing these compounds, their use as medicines, pharmaceutical compositions and phenols and thiophenols” (HOECHST AKTIENGESELLSCHAFT, priority 1988, dated 1989).

SMILES strings stand for the structures. Like-named read-outs stand apart in the source and are kept apart here.

One assay deals with T1, HMG-CoA-Reduktase (Rattus norvegicus, UniProt P51639).
T1 construct: solubilisierten Enzympräparationen aus Ratten-Lebermikrosomen; from tissue; host or cells: rat liver microsomes (cholestyramine-induced rats)
T1 sequence (P51639 1-887): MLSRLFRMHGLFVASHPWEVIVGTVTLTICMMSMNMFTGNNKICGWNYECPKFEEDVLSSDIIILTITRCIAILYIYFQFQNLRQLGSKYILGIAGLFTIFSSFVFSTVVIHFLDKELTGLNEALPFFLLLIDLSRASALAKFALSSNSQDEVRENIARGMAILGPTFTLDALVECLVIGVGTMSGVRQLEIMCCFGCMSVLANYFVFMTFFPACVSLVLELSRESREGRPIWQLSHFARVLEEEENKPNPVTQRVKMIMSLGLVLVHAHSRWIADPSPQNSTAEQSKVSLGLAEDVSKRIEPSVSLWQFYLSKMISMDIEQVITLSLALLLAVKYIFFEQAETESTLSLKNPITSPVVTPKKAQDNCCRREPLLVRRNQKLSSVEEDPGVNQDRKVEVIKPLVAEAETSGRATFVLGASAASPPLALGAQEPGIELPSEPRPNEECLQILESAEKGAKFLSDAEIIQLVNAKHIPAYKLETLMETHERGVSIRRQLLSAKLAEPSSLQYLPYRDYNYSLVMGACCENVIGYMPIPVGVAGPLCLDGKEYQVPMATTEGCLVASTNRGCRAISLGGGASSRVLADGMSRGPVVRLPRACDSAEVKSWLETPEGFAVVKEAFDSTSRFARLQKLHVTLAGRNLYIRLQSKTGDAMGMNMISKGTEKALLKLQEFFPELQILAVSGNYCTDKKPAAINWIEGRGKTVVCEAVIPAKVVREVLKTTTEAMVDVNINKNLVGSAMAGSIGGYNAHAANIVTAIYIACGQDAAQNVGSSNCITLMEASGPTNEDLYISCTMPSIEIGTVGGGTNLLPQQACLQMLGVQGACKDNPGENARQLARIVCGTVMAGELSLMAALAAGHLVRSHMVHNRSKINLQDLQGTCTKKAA
Kind of assay: Inhibition of HMG-CoA reductase activity in solubilised enzyme preparations from rat liver microsomes. Type of assay: biochemical, Ratten. The settings on record: sodium salts of the dihydroxycarboxylic acids of formula II; substrate (S,R) 14C-HMG-CoA; mean of 3 parallel samples; read-out: IC₅₀. An excerpt:
Die HMG-CoA-Reduktase-Aktivität der Natriumsalze der erfindungsgemäßen Verbindungen der Formel II wurde in zwei Testsystemen bestimmt 1) Inhibierung der HMG-CoA-Reduktase-Aktivität an solubilisierten Enzympräparationen aus Ratten-Lebermikrosomen Die HMG-CoA-Reduktase-Aktivität wurde an solubilisierten Enzympräparationen aus Lebermikrosomen von Ratten gemessen, die nach Umstellung im Tag-Nacht-Rhythmus mit Cholestyramin (®Cuemid) induziert wurden. Als Substrat diente (S,R) ¹⁴C-HMG-CoA, die Konzentration von NADPH wurde während der Inkubation durch ein regenerierendes System aufrechterhalten. Die Abtrennung von ¹⁴C-Mevalonat von Substrat und anderen Produkten (z.B. ¹⁴C-HMG) erfolgte über Säulenelution, wobei das Elutionsprofil jeder Einzelprobe ermittelt wurde. Auf die ständige Mitführung von ³H-Mevalonat wurde verzichtet, weil es sich bei der Bestimmung um die Relativangabe der Hemmwirkung handelt. In einer Versuchsreiche wurden jeweils die enzymfreie Kontrolle, der enzymhaltige Normalansatz (= 100 %) und solche mit Präparatezusätzen zusammen behandelt. Jeder Einzelwert wurde als Mittelwert aus 3 Parallelproben gebildet. Die Signifikanz der Mittelwertsunterschiede zwischen präparatefreien und präparatehaltigen Proben wurde nach dem t-Test beurteilt. Nach der oben beschriebenen Methode wurden von den erfindungsgemäßen Verbindungen z.B. folgende Hemmwerte auf die HMG-CoA-Reduktase ermittelt (IC₅₀- (mol/l); molare Konzentration der Verbindung pro Liter, die für eine 50 %ige Hemmung erforderlich ist) Tabelle 1
Background: Liver microsomes are vesicles of endoplasmic reticulum, rich in cytochrome P450 enzymes.

Assay [1] concerns the target T2, HMG-CoA-Reduktase in HEP G2-Zellkulturen (Homo sapiens, UniProt P04035).
T2 sequence (P04035 1-888): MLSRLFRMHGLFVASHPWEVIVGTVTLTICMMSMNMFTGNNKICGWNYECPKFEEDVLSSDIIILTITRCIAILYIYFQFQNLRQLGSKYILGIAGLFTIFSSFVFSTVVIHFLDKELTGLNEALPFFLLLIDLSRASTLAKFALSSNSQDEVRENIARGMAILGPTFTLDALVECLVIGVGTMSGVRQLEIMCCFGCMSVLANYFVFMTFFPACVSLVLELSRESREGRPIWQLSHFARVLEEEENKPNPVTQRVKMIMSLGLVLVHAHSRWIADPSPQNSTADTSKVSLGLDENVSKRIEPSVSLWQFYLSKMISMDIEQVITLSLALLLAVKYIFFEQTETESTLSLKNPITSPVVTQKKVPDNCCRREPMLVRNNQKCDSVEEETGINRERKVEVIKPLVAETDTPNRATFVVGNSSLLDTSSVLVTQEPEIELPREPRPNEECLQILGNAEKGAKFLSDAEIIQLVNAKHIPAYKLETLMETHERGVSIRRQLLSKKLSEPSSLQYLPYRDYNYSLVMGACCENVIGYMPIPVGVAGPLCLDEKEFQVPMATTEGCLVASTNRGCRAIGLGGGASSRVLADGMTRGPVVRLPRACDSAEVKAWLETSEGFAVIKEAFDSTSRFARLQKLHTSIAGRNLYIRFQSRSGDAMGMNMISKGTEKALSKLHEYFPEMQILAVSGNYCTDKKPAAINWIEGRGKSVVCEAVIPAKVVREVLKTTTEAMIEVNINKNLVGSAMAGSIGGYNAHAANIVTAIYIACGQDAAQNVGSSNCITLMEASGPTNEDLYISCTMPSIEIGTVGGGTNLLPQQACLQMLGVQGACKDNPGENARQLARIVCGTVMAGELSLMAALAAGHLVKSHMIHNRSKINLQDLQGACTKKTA
Put plainly: Inhibition of 14C-sodium acetate incorporation into cholesterol in HEP G2 cell cultures. Type of assay: cell-based. Particulars: for relative Wirkstärke: Mevinolin-Natrium = 100; for IC70: HepG2, 3 h, read-out: IC₇₀. An excerpt:
2) Supprimierung bzw. Inhibierung der HMG-CoA-Reduktase in HEP G2-Zellkulturen (einer Human-Hepatoma-Zell-Linie) Es erfolgte eine Bestimmung der Inhibition des Einbaus von ¹⁴C-Natriumacetat in Cholesterin. Monolayers von HEP G2-Zellen in RPMJ 1640 Medium mit 10 % von Lipiden befreitem fötalem Kälberserum wurden 1 Stunde mit verschiedenen Konzentrationen der Natriumsalze der Dihydroxycarbonsäuren der Formel II präinkubiert. Nach Zugabe von ¹⁴C-markiertem Natriumacetat wurde die Inkubation 3 Std. fortgesetzt. Tritium-markiertes Cholesterin wurde als interner Standard zugefügt und ein Aliquot der Zellen alkalisch verseift. Die Lipide wurden mit Chloroform/Methanol 2:1 extrahiert. Nach Zugabe von Carrier-Cholesterin wurde das Lipidgemisch präparativ auf DC-Platten mit Chloroform/Aceton 9:1 getrennt. Die Cholesterin-Zone wurde durch Anfärben mit Joddampf sichtbar gemacht, außerdem mit einem DC-Radioscanner detektiert und dann abgeschabt. Die Menge ¹⁴C-Cholesterin wurde szintigraphisch bestimmt. In einem anderen Aliquot der Zell-Monolayers wurde (zur Berechnung der ¹⁴C-Cholesterinbiosynthese pro mg Zell-Protein) das Zellprotein gemessen. Dieselbe Prozedur wurde mit Zellen der gleichen Kultur ohne Präinkubation mit einer Testverbindung durchgeführt (sogenannte "Lösungsmittelkontrolle"). Die Wirkstärke der Testverbindungen wurde bestimmt durch Vergleich des biosynthetisierten ¹⁴C-Cholesterins in Testläufen und bei "Lösungsmittelkontrolle". Die Wirkstärke wurde auf der Basis von Mevinolin-Natriumsalz als externer Standard berechnet. […] Die gemessenen IC's für Testverbindungen (Natriumsalze der Dihydroxycarbonsäuren der Formel II) (Tab. 2) wurden um die Abweichung von Mevinolin-Natrium von seinem Durchschnittswert korrigiert. Mevinolin-Natrium wurde eine relative Wirkstärke von 100 zugewiesen.

[2] abbreviates: value outside parentheses (matches ratio of IC50 values).

As to `CC(C)c1cc(-c2ccc(F)cc2)cc(-c2ccc(F)cc2)c1SC[C@@H](O)C[C@@H](O)CC(=O)O` [Beispiel 8g, 3(R),5(S)-Dihydroxy-6-[2-isopropyl-4,6-bis-(4-fluorphenyl)-thiophenoxy]-hexansäure-Natriumsalz], the IC50 on HMG-CoA-Reduktase is 36 nM. For `CC(C)c1cc(-c2ccc(F)cc2)c(SC[C@@H](O)C[C@@H](O)CC(=O)O)c(C(C)C)c1` [Beispiel 8f, 3(R),5(S)-Dihydroxy-6-[2-(4-fluorphenyl)-4,6-diisopropylthiophenoxy]-hexansäure-Natriumsalz], on HMG-CoA-Reduktase, the IC50 was 4.8 nM.

For the compound `CC(C)c1cc(C(C)(C)C)cc(-c2ccc(F)cc2)c1OC[C@@H](O)C[C@@H](O)CC(=O)O` [Beispiel 8b, 3(R),5(S)-Dihydroxy-6-[2-isopropyl-4-tert.-butyl-6-(4-fluorphenyl)-phenoxy]-hexansäure-Natriumsalz], the IC50 at HMG-CoA-Reduktase is more than 100 nM. Moreover, in assay [1] (setting [2]), the “relative Wirkstärke” value is less than 1. Take `CC(C)c1cc(-c2ccc(F)cc2)cc(-c2ccc(F)cc2)c1OC[C@@H](O)C[C@@H](O)CC(=O)O` [Beispiel 8c, 3(R),5(S)-Dihydroxy-6-[2-isopropyl-4,6-bis-(4-fluorphenyl)-phenoxy]-hexansäure-Natriumsalz]: the IC50 at HMG-CoA-Reduktase was found to be 17 nM. In assay [1] (setting [2]), the “relative Wirkstärke” value is given as 56. For `CC(C)c1cc(-c2ccc(F)cc2)c(OC[C@@H](O)C[C@@H](O)CC(=O)O)c(C(C)C)c1` [Beispiel 8a, 3(R),5(S)-Dihydroxy-6-[2-(4-fluorphenyl)-4,6-diisopropylphenoxy]-hexansäure-Natriumsalz], the IC50 on HMG-CoA-Reduktase worked out at 2.3 nM. Besides, in assay [1] (concentration for 70 % inhibition, sodium salts, corrected for the deviation of Mevinolin-Natrium from its mean value), the IC70 was found to be 70 nM. In addition, the results for the “relative Wirkstärke” value in assay [1] (value in parentheses (matches ratio of IC70 values)) and in assay [1] (setting [2]) were 214 and 185, respectively.

`CC(C)c1cc(C2CCCCC2)cc(-c2ccc(F)cc2)c1OC[C@@H](O)C[C@@H](O)CC(=O)O` [Beispiel 8e, 3(R),5(S)-Dihydroxy-6-[2-isopropyl-4-cyclohexyl-6-(4-fluorphenyl)-phenoxy]-hexansäure-Natriumsalz]: the IC50 on HMG-CoA-Reduktase was 5.2 nM. Consider `CCC(C)C(=O)OC1CC(C)C=C2C=CC(C)C(CCC(O)CC(O)CC(=O)O)C21` (centres unmarked) [Mevinolin-Natriumsalz, reference compound], for which the IC70 in assay [1] (mean value over different cell batches, external standard) stood at 150 nM.

As to `CC(C)c1cc(-c2ccccc2)cc(-c2ccc(F)cc2)c1OC[C@@H](O)C[C@@H](O)CC(=O)O` [Beispiel 8d, 3(R),5(S)-Dihydroxy-6-[2-isopropyl-4-phenyl-6-(4-fluorphenyl)-phenoxy-]-hexansäure-Natriumsalz], the IC50 on HMG-CoA-Reduktase came out at 23 nM. Further, the “relative Wirkstärke” value in assay [1] (setting [2]) came to 53.
